Series [1] addresses cholinergic muscarinic receptors (MRs) in lymphocytes. The series is described as follows: Spleen lymphocyte MR density and affinity after perinatal exposure. It is filed as in vivo, rat. Here is the method: (§1) The experimental regimen comprises 0.5 and 1 mg MeHg/kg (body weight) bw/day, administered to rat dams in the drinking water from gestational day (GD)7 to postnatal (PD)7, and/or PCB153 (20 mg/kg/day) dissolved in corn oil, administered to rats from GD10 to GD16.
(§2) The endpoints investigated in rats included total cholinergic MRs and MAO-B activity in cerebellum and total MRs in lymphocytes at weaning (i.e., PD21) both in dams and their offspring.
(§3) At the day of sacrifice, rat brains were rapidly dissected on ice to isolate cerebellum from dams and offspring and stored at −80°C until the analyses were performed. Spleens were also collected.
(i) Rat lymphocytes were obtained from the spleen of controls and differently treated animals. MR density and affinity in rat lymphocytes were determined as described in [52].

In series [2] the test system is cholinergic muscarinic receptors (MRs). It is filed as in vivo, rat. As to conditions: for increase of cerebellar MRs density (Bmax): MeHg 1 mg/kg/day GD7-PND7; for effect on cerebellar dissociation constant (Kd) of [3H]QNB: rat, in vivo.
Series [3] deals with MAO-B. Conditions: St. Lawrence River (Lake St. Pierre, Quebec) fish-eating population; ref Stamler et al. 2006 [68]; cited from earlier work.
The format of series [4] is in vivo, rat. Here is the method:
as §1
Measurements of total Hg in cerebellum and blood also complemented the molecular studies to correlate neurochemical changes with the internal doses (see methods in [43, 52, 73]).

The target in series [5] is T1, MAO-B (Rattus norvegicus, UniProt P19643).
T1 construct: from tissue; host or cells: rat cerebellum homogenate (dams and PD21 offspring)
T1 sequence (P19643 whole entry): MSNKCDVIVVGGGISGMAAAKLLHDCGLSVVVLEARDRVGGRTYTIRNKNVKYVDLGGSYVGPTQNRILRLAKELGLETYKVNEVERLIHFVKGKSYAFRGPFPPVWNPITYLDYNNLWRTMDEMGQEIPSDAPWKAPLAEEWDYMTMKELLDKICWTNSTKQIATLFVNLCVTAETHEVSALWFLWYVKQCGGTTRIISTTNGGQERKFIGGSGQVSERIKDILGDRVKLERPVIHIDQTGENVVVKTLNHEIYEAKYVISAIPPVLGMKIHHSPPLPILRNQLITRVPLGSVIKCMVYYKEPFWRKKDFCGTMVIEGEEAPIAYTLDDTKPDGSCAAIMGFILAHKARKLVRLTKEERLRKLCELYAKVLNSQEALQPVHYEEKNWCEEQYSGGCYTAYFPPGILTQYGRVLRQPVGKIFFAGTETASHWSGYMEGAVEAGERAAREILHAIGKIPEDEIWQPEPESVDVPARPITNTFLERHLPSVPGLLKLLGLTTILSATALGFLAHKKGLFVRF
The series is described as follows: Cerebellar MAO-B activity (radiochemical, 14C-PEA) after perinatal exposure. It is filed as in vivo. As to conditions: for decrease of cerebellar MAO-B activity: male pups PD21, maternal oral MeHg 1 mg/kg/day GD7-PND7 and/or PCB153 20 mg/kg/day GD10–GD16, vs control 19.26 ± 2.05 nmol/mg protein/h. How it is done: as §1, §2, §3
(ii) MAO-B activity was determined radiochemically as described by Young et al., 1986 [71] using 10 μM ^14C-PEA as the substrate. Specific MAO-B activity was determined in the presence of 100 μM pargyline hydrochloride. The reaction was started by addition of ^14C-PEA to 50 μL of tissue homogenate (0.2 mL final volume) and stopped by addition of 0.1 mL citric acid 2 M after a 15-min incubation at 37°C. Deaminated reaction products were extracted into 3 mL toluene-ethylacetate (1 : 1, v/v) and the radioactivity contained in a 1-mL aliquot of the organic phase was counted in scintillation counter. The enzyme activity was expressed as nmol/mg protein/h.

Series [6] is classed as in vivo, rat. Conditions: MeHg 1 mg/kg/day; whole brain.
[7] abbreviates: 21-day-old, same treatments, mean ± S.D.

We go through two molecules from paper PMC3306999 (Journal of Toxicology, 2012).

The structures appear in SMILES notation. Read-outs that look alike come from different tables or passages of the source.

With `[CH3][Hg][Cl]` [MeHg, methylmercury], the “effect on lymphocyte Kd values” in series [1] (MeHg 1 mg/kg/day, dams and offspring) was “absence of any change”; in series [1] (lower MeHg dose 0.5 mg/kg/day), “devoid of any effect”. For the same molecule, the “increase of lymphocyte MR density (Bmax)” value in series [1] (dams, MeHg 1 mg/kg/day GD7-PND7, vs control 33 ± 4 fmol/million cells) amounted to 139%; in series [1] (female offspring 21 days old, MeHg 1 mg/kg/day, vs control 37 ± 4 fmol/million cells), 73%; in series [1] (male offspring 21 days old, MeHg 1 mg/kg/day, vs control 41 ± 8 fmol/million cells) it was 49%. Further, the “effect on lymphocyte MR density” value in series [1] (lower MeHg dose 0.5 mg/kg/day, all groups, day 21 postpartum) is given as “did not significantly differ”. The “increase of cerebellar MRs density (Bmax)” value in series [2] (dams, PD21) is 87%; in series [2] (male pups PD21) it was 27%. The “effect on cerebellar MR density” value in series [2] (lower MeHg dose 0.5 mg/kg/day alone or in combination with PCB153, mother and offspring) was “did not cause any change”. For the same molecule, the “effect on cerebellar dissociation constant (Kd) of [3H]QNB” value in series [2] is given as “did not affect”. The “blood-Hg concentrations associated with MeHg-induced reduction in MAO-B activity” value in the series with MAO-B [3] was “above 3.4 μg/L”. Moreover, the “Blood Hg, Dams” value in series [4] (1 mg MeHg/kg bw/day GD7-PD7 and/or 20 mg PCB153/kg bw/day GD10–GD16, mean ± S.D.) is reported as 11.33 ± 2.26 n = 4 μg/ml. In addition, in series [4] (setting [7]), the “Blood Hg, Offspring Female” value is recorded as 1.31 ± 0.40 n = 4 μg/ml. The “Blood Hg, Offspring Male” value in series [4] (setting [7]) was 1.35 ± 0.40 n = 4 μg/ml. Further, the “Brain Hg, Offspring Female” value in series [4] (setting [7]) is 1.52 ± 0.33 n = 4 μg/g. The “Brain Hg, Offspring Male” value in series [4] (setting [7]) is given as 1.67 ± 0.43 n = 4 μg/g. In addition, the “Hg in rat blood at PD21” value in series [4] (perinatal 1 mg MeHg/kg/day) was 1300 ppb. Besides, the “cerebral Hg levels in weaning rats” value in series [4] (perinatal 1 mg MeHg/kg/day) is 1.5–2.8 ppm. Moreover, in series [4] (perinatal 1 mg MeHg/kg/day, both pup genders), the “blood Hg levels in weaning rats” value turned out to be 1.3 ± 0.4 µg/mL. Further, the “Hg levels in pup blood” value in series [4] (pups, both genders, MeHg 1 mg/kg/day) is 1.35 ± 0.4 mg/L. For the same molecule, the “Brain Hg, Dams” value in series [4] (same treatments) is 7.53 µg/g. For the same molecule, the “effect on MAO-B activity” value on MAO-B [5] (lower MeHg dose 0.5 mg/kg/day GD7-PND7, male and female offspring) is reported as “no effects”. The “decrease of cerebellar MAO-B activity” value at MAO-B [5] is given as 35%. The “brain Hg concentration, mother versus offspring” value in series [6] is “about five-fold higher”.

Take `Clc1cc(Cl)c(-c2cc(Cl)c(Cl)cc2Cl)cc1Cl` [PCB153, 2,2′,4,4′,5,5′-hexachlorobiphenyl]: in series [2] (adult and offspring PD21, PCB153 20 mg/kg/day GD10–GD16 alone or with MeHg 1 mg/kg/day), the “effect on cerebellar MRs density” value is given as “did not modify”. In series [2], the “effect on cerebellar dissociation constant (Kd) of [3H]QNB” value is reported as “did not affect”. For the same molecule, in series [4] (MeHg 1 mg/kg/day + PCB153), the “effect of PCB153 coexposure on brain Hg concentrations” value was “not affected”. Moreover, the “decrease of cerebellar MAO-B activity” value on MAO-B [5] is 45%.
